# US20120321590A1, “BRIDGED POLYCYCLIC COMPOUNDS” (priority 2011, published 2012)
# Like-named read-outs stand apart in the source and are kept apart here.
# Key:
# Type in all cases: cell-based, HCV
# [1] = system: genotype 1b (Con1) dicistronic subgenomic replicon; assay: Transient replicon assay, genotype 1b; conditions: Huh7-Lunet cells transfected with replicon RNA, cultured 4 days, luciferase activity
# Experimental: (§1) The transient replicon assay utilizes the genotype 1b (Con1) dicistronic subgenomic replicon. Genotype 1a activity was determined using a chimeric replicon containing the genotype 1b sequence for NS3 through NS5A nonstructural proteins and genotype 1a (H77) sequence for the NS5B region.
# (§2) The RNA transcripts were generated using the Megascript T7 kit (Applied Biosystems, Foster City, Calif.). Exponentially growing Huh7-Lunet cells were mixed with 4 μg of replicon RNA and plated into a 96-well plate Gene Pulser MXcell Electroporation System (Bio-Rad, Hercules, Calif.). Electroporation was immediately performed at 250 V and 750 μF capacitance with a single exponential waveform pulse. Transfected cells were transferred to Dulbecco modified Eagle medium in the presence of 10% FBS and plated into 96-well plates with 7,500 cells per well. Compounds at various concentrations were added to the cells after 2 hours and were cultured for 4 days. The cells were lysed with the Bright-Glo Reagent (Promega, Madison, Wis.) and luciferase activity was measured with a luminometer (Wallac 1420 Multilabel HTS Counter Victor 2). The background control was replicon cells treated with 100 nM BILN-2061, an inhibitor of the HCV protease. Dose responses were performed in triplicate and the values were averaged. All experiments were repeated at least three times to verify the reproducibility.
# (§3) The EC50 values were determined using a standard four-parameter dose response equation.
# [2] = Transient replicon assay, genotype 1a chimeric replicon; conditions: Hepatitis C virus, genotype 1a / genotype 1b, Huh-7, 96 h, read-out: EC50 1a, Huh7-Lunet cells transfected with chimeric replicon RNA, cultured 4 days, luciferase activity
# Experimental: as §1, §2, §3
# [3] = system: chimeric replicon containing the genotype 1b sequence for NS3 through NS5A and genotype 1a (H77) sequence for the NS5B region; assay: as above
# Experimental: as §1, §2, §3
# [4] = read-out: EC50 1a; Huh7-Lunet cells transfected with chimeric replicon RNA, cultured 4 days, luciferase activity
Compound,"EC50 ([1]; Hepatitis C virus, Huh-7, 96 h)",EC50 [2],EC50 [1],"EC50 ([3]; Huh7-Lunet cells transfected with chimeric replicon RNA, cultured 4 days, luciferase activity; read-out: EC50 1a)","EC50 [3, 4]"
"CS(=O)(=O)NCc1csc2c1S(=O)(=O)N=C(C1=C(O)C3C4C5C6C7C4C7C(C56)C3N(Cc3ccc(F)cc3)C1=O)N2 (racemic) [Example 13, rac-N-({3-[(1R,10S)-11-[(4-Fluorophenyl)methyl]-14-hydroxy-12-oxo-11-azahexacyclo[8.4.0.0^2,7.0^3,5.0^4,9.0^6,8]tetradec-13-en-13-yl]-1,1-dioxo-4H-1λ^6,5,2,4-thieno[2,3-e][1λ^6,2,4]thiadiazin-7-yl}methyl)methanesulfonamide]",2 nM,36 nM,,,
CS(=O)(=O)Nc1ccc2c(c1)S(=O)(=O)N=C(C1=C(O)[C@H]3C4C5C6C7C(C74)C(C65)[C@H]3N(Cc3ccc(F)cc3)C1=O)N2 (stereo partly drawn) [Example 12],> 330 nM,> 330 nM,,,
"CS(=O)(=O)NCc1csc2c1S(=O)(=O)N=C(C1=C(O)[C@@H]3C4CC5CC(C4)CC(C5)[C@@H]3N(Cc3ccc(F)cc3)C1=O)N2 (racemic) [Example 6, rac-N-({3-[(2S,7R)-3-[(4-Fluorophenyl)methyl]-6-hydroxy-4-oxo-3-azatetracyclo[8.3.1.1^8,12.0^2,7]pentadec-5-en-5-yl]-1,1-dioxo-4H-1λ^6,5,2,4-thieno[2,3-e][1λ^6,2,4]thiadiazin-7-yl}methyl)methanesulfonamide]",42 nM,696 nM,,,
"CS(=O)(=O)Nc1ccc2c(c1)S(=O)(=O)N=C(C1=C(O)C3C4C5C6C7C4C7C(C56)C3N(Cc3ccc(F)cc3)C1=O)N2 (racemic) [Example 10, rac-N-{3-[(1R,10S)-11-[(4-Fluorophenyl)methyl]-14-hydroxy-12-oxo-11-azahexacyclo[8.4.0.0^2,70.0^3,5.0^4,9.0^6,8]tetradec-13-en-13-yl]-1,1-dioxo-4H-1λ^6,2,4-benzothiadiazin-7-yl}methanesulfonamide]",1 nM,8 nM,,,
"CS(=O)(=O)Nc1ccc2c(c1)S(=O)(=O)N=C(C1=C(O)[C@@H]3CCC[C@@H]3N(Cc3ccc(F)cc3)C1=O)N2 [Example 17, reference compound]",18 nM,550 nM,,,
"CS(=O)(=O)Nc1ccc2c(c1)S(=O)(=O)N=C(C1=C(O)[C@@H]3C4CCC(CC4)[C@@H]3N(Cc3ccc(F)cc3)C1=O)N2 [Example 20, reference compound]",0.6 nM,12 nM,,,
"CS(=O)(=O)Nc1ccc2c(c1)S(=O)(=O)N=C(C1=C(O)[C@@H]3C4CC5CC(C4)CC(C5)[C@@H]3N(Cc3ccc(F)cc3)C1=O)N2 (racemic) [Example 5, rac-N-{3-[(2S,7R)-3-[(4-Fluorophenyl)methyl]-6-hydroxy-4-oxo-3-azatetracyclo[8.3.1.1^8,12.0^2,7]pentadec-5-en-5-yl]-1,1-dioxo-4H-1λ^6,2,4-benzothiadiazin-7-yl}methanesulfonamide]",11 nM,193 nM,,,
"CS(=O)(=O)Nc1ccc2c(c1)S(=O)(=O)N=C(C1=C(O)C3C4C5C6C4C4C6C5C4C3N(Cc3ccc(F)cc3)C1=O)N2 (racemic) [Example 14, rac-N-{3-[(1R,10S)-11-[(4-fluorophenyl)methyl]-14-hydroxy-12-oxo-11-azahexacyclo[8.4.0.0^2,5.0^3,8.0^4,7.0^6,9]tetradec-13-en-13-yl]-1,1-dioxo-4H-1λ^6,2,4-benzothiadiazin-7-yl}methanesulfonamide]",2 nM,43 nM,,,
"CS(=O)(=O)Nc1ccc2c(c1)S(=O)(=O)N=C(C1=C(O)[C@@H]3C4C5C6C7C4C7C(C65)[C@@H]3N(Cc3ccc(F)cc3)C1=O)N2 (stereo partly drawn) [Example 11, N-{3-[(1R,10S)-11-[(4-Fluorophenyl)methyl]-14-hydroxy-12-oxo-11-azahexacyclo[8.4.0.0^2,7.0^3,5.0^4,9.0^6,8]tetradec-13-en-13-yl]-1,1-dioxo-4H-1λ^6,2,4-benzothiadiazin-7-yl}methanesulfonamide]",0.5 nM,4 nM,,,
"CS(=O)(=O)NCc1csc2c1S(=O)(=O)N=C(C1=C(O)[C@@H]3C4C5CC6C4C6C5[C@@H]3N(Cc3ccc(F)cc3)C1=O)N2 (mixture of isomers) [Example 9, rac-N-({3-[(1R,9S)-10-[(4-Fluorophenyl)methyl]-13-hydroxy-11-oxo-10-azapentacyclo[7.4.0.0^2,7.0^3,5.0^4,8]tridec-12-en-12-yl]-1,1-dioxo-4H-1λ^6,5,2,4-thieno[2,3-e][1λ^6,2,4]thiadiazin-7-yl}methyl)methanesulfonamide]",5 nM,171 nM,,,
"CS(=O)(=O)NCc1csc2c1S(=O)(=O)N=C(C1=C(O)[C@@H]3[C@H]4CC[C@H](C4)[C@@H]3N(Cc3ccc(F)cc3)C1=O)N2 [Example 19, reference compound]",2 nM,45 nM,,,
"CS(=O)(=O)Nc1ccc2c(c1)S(=O)(=O)N=C(c1c(O)c3cccn3n(Cc3ccc(F)cc3)c1=O)N2 [Example 21, reference compound]",13 nM,400 nM,,,
"CS(=O)(=O)Nc1ccc2c(c1)S(=O)(=O)N=C(C1=C(O)[C@@H]3C4C5C6CC7C4C7C(C65)[C@@H]3N(Cc3ccc(F)cc3)C1=O)N2 (racemic) [Example 1, rac-N-{3-[(4S,9R)-5-[(4-Fluorophenyl)methyl]-8-hydroxy-6-oxo-5-azahexacyclo[8.5.0.0^2,15.0^3,12.0^4,9.0^11,13]pentadec-7-en-7-yl]-1,1-dioxo-4H-1λ^6,2,4-benzothiadiazin-7-yl}methanesulfonamide]",2 nM,12 nM,,,
"CS(=O)(=O)NCc1csc2c1S(=O)(=O)N=C(C1=C(O)[C@@H]3C4C5C6CC7C4C7C(C65)[C@@H]3N(Cc3ccc(F)cc3)C1=O)N2 (racemic) [Example 4, rac-N-({3-[(4S,9R)-5-[(4-Fluorophenyl)methyl]-8-hydroxy-6-oxo-5-azahexacyclo[8.5.0.0^2,15.0^3,12.0^4,9.0^11,13]pentadec-7-en-7-yl]-1,1-dioxo-4H-1λ^6,5,2,4-thieno[2,3-e][1λ^6,2,4]thiadiazin-7-yl}methyl)methanesulfonamide]",,,1 nM,42 nM,
"CS(=O)(=O)Nc1ccc2c(c1)S(=O)(=O)N=C(C1=C(O)[C@H]3C4C5C6CC7C(C74)C(C65)[C@H]3N(Cc3ccc(F)cc3)C1=O)N2 [Example 3, N-{3-[(4R,9S)-5-[(4-Fluorophenyl)methyl]-8-hydroxy-6-oxo-5-azahexacyclo[8.5.0.0^2,15.0^3,12.0^4,9.0^11,13]pentadec-7-en-7-yl]-1,1-dioxo-4H-1λ^6,2,4-benzothiadiazin-7-yl}methanesulfonamide]",> 330 nM,> 330 nM,,,
"CS(=O)(=O)Nc1ccc2c(c1)S(=O)(=O)N=C(C1=C(O)[C@@H]3C4C5C6CC7C4C7C(C65)[C@@H]3N(Cc3ccc(F)cc3)C1=O)N2 [Example 2, N-{3-[(4S,9R)-5-[(4-Fluorophenyl)methyl]-8-hydroxy-6-oxo-5-azahexacyclo[8.5.0.0^2,15.0^3,12.0^4,9.0^11,13]pentadec-7-en-7-yl]-1,1-dioxo-4H-1λ^6,2,4-benzothiadiazin-7-yl}methanesulfonamide]",1 nM,8 nM,,,
"CS(=O)(=O)Nc1ccc2c(c1)S(=O)(=O)N=C(C1=C(O)[C@@H]3[C@H]4CC[C@H](C4)[C@@H]3N(Cc3ccc(F)cc3)C1=O)N2 [Example 18, reference compound]",2 nM,45 nM,,,
"CS(=O)(=O)Nc1ccc2c(c1)S(=O)(=O)N=C(C1=C(O)[C@@H]3C4C5CC6C4C6C5[C@@H]3N(Cc3ccc(F)cc3)C1=O)N2 (mixture of isomers) [Example 7, rac-N-{3-[(1R,9S)-10-[(4-Fluorophenyl)methyl]-13-hydroxy-11-oxo-10-azapentacyclo[7.4.0.0^2,7.0^3,5.0^4,8]tridec-12-en-12-yl]-1,1-dioxo-4H-1λ^6,2,4-benzothiadiazin-7-yl}methanesulfonamide]",4 nM,,,,137 nM
"CS(=O)(=O)NCc1csc2c1S(=O)(=O)N=C(C1=C(O)C3C4C5C6C4C4C6C5C4C3N(Cc3ccc(F)cc3)C1=O)N2 (racemic) [Example 15, rac-N-({3-[(1R,10S)-11-[(4-fluorophenyl)methyl]-14-hydroxy-12-oxo-11-azahexacyclo[8.4.0.0^2,5.0^3,8.0^4,7.0^6,9]tetradec-13-en-13-yl]-1,1-dioxo-4H-1λ^6,5,2,4-thieno[2,3-e][1λ^6,2,4]thiadiazin-7-yl}methyl)methanesulfonamide]",13 nM,,,,
"CS(=O)(=O)Nc1ccc2c(c1)S(=O)(=O)N=C(C1=C(O)[C@@H]3C4C5CC6C4C6C5[C@@H]3N(Cc3ccc(F)cc3)C1=O)N2 (mixture of isomers) [Example 8, rac-N-{3-[(1R,9S)-10-[(4-Fluorophenyl)methyl]-13-hydroxy-11-oxo-10-azapentacyclo[7.4.0.0^2,7.0^3,5.0^4,8]tridec-12-en-12-yl]-1,1-dioxo-4H-1λ^6,2,4-benzothiadiazin-7-yl}methanesulfonamide]",,,4 nM,,336 nM
